Data reported in patent US10550111B2, “Pyrimidine urea compound containing isoxazolines and use thereof” (SHENYANG SINOCHEM AGROCHEMICALS R&D CO., LTD, priority 2014, dated 2020).

Columns and labels:
Type in all cases: in vivo
[1] = tested on: Abutilon theophrasti Medic.; assay: Bioassay of herbicidal activity in greenhouse (further screening)
Outline: (§1)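 Monocot and dicot weeds grown in greenhouse pots; emulsifiable concentrate track-sprayed at 500 L/hm² pre-emergence (24 h after seeding) or post-emergence (grasses 2–3-leaf, broad-leaves 2–4-leaf). Growth inhibition scored visually, 0 = no action, 100 = all dead or not emerged.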

[2] = tested on: Echinochloa crus-galli (L.) Beauv.; assay: as above
Outline: as §1

[3] = tested on: Setaria glauca (L.) Beauv.; assay: as above
Outline: as §1

[4] = tested on: Zinnia elegans Jacq.; assay: as above
Outline: as §1

[5] = tested on: broad-leaf weeds and grass weeds; assay: General screening of herbicidal activity in greenhouse; conditions: 1000 g a.i./hm^2;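 note: 0 means no visible effect and 100 means all weeds dead or not emerged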
Outline: as §1

[6] = tested on: maize; assay: Crop safety study in greenhouse; conditions: 7.5-37.5 g a.i./hm^2; pre-emergence and post-emergence application
From the text: (§2) Seeds of soybean, cotton, maize, wheat and rice were sown in nutrition soil in paper pot (9 cm diameter), covered with soil in 1 cm and grown in the greenhouse under good growth conditions (temperature, atmospheric humidity, water supply). The compounds of the present invention as emulsifiable concentrate, were applied in pre-emergence and post-emergence treatment by track sprayer (Engineer Research Ltd., pressure 1.95 kg/cm^2, volume 500 L/hm^2, track speed 1.48 km/h). Pre-emergence treatment was conducted after seeding 24 hours and post-emergence treatment was done when the respective weeds reached predetermined leaf stage (soybean and cotton at 2- to 4-leaf stage and maize, wheat and rice at 3-leaf stage), the state of growth of the respective crops were visually observed to determine the safety in accordance with the following evaluation standard.
(§3) Safety rating scale (%): 0 means no damage to crops; 100 means to kill crops completely.

[7] = tested on: rice; assay: Crop safety study in greenhouse; conditions: 7.5-37.5 g a.i./hm^2; pre-emergence and post-emergence application
From the text: as §2, §3

[8] = tested on: wheat; assay: Crop safety study in greenhouse; conditions: 7.5-37.5 g a.i./hm^2; pre-emergence and post-emergence application
From the text: as §2, §3

`CC(=O)OCC1(C)CC(c2cc(-n3c(=O)cc(C(F)(F)F)n(C)c3=O)c(F)cc2Cl)=NO1` (centres unmarked) [Compound 43] was tested, and the “Growth inhibition rate, Post-emergence treatment, Abutilon theophrasti Medic.” value ([1]; dose 7.5 g a.i./hm^2) was 100%, the “Growth inhibition rate, Post-emergence treatment, Abutilon theophrasti Medic.” value ([1]; dose 15 g a.i./hm^2) was 100% and the “Growth inhibition rate, Post-emergence treatment, Abutilon theophrasti Medic.” value ([1]; dose 37.5 g a.i./hm^2) was 100%. For the same compound, the “Growth inhibition rate, Post-emergence treatment, Abutilon theophrasti Medic.” value ([1]; dose 150 g a.i./hm^2) was 100%, the “Growth inhibition rate, Post-emergence treatment, Abutilon theophrasti Medic.” value ([1]; dose 600 g a.i./hm^2) was 100% and the “Growth inhibition rate, Pre-emergence treatment, Abutilon theophrasti Medic.” value ([1]; dose 7.5 g a.i./hm^2) was 100%. For the same compound, the “Growth inhibition rate, Pre-emergence treatment, Abutilon theophrasti Medic.” value ([1]; dose 15 g a.i./hm^2) was 100%, the “Growth inhibition rate, Pre-emergence treatment, Abutilon theophrasti Medic.” value ([1]; dose 37.5 g a.i./hm^2) was 100% and the “Growth inhibition rate, Pre-emergence treatment, Abutilon theophrasti Medic.” value ([1]; dose 150 g a.i./hm^2) was 100%. For the same compound, the “Growth inhibition rate, Pre-emergence treatment, Abutilon theophrasti Medic.” value ([1]; dose 600 g a.i./hm^2) was 100%, the “Growth inhibition rate, Post-emergence treatment, Echinochloa crus-galli (L.) Beauv.” value ([2]; dose 7.5 g a.i./hm^2) was 10% and the “Growth inhibition rate, Post-emergence treatment, Echinochloa crus-galli (L.) Beauv.” value ([2]; dose 15 g a.i./hm^2) was 20%. For the same compound, the “Growth inhibition rate, Post-emergence treatment, Echinochloa crus-galli (L.) Beauv.” value ([2]; dose 37.5 g a.i./hm^2) was 10%, the “Growth inhibition rate, Post-emergence treatment, Echinochloa crus-galli (L.) Beauv.” value ([2]; dose 150 g a.i./hm^2) was 90% and the “Growth inhibition rate, Post-emergence treatment, Echinochloa crus-galli (L.) Beauv.” value ([2]; dose 600 g a.i./hm^2) was 100%. For the same compound, the “Growth inhibition rate, Pre-emergence treatment, Echinochloa crus-galli (L.) Beauv.” value ([2]; dose 7.5 g a.i./hm^2) was 10%, the “Growth inhibition rate, Pre-emergence treatment, Echinochloa crus-galli (L.) Beauv.” value ([2]; dose 15 g a.i./hm^2) was 60% and the “Growth inhibition rate, Pre-emergence treatment, Echinochloa crus-galli (L.) Beauv.” value ([2]; dose 37.5 g a.i./hm^2) was 90%. The “Growth inhibition rate, Pre-emergence treatment, Echinochloa crus-galli (L.) Beauv.” value ([2]; dose 150 g a.i./hm^2) was 95%, the “Growth inhibition rate, Pre-emergence treatment, Echinochloa crus-galli (L.) Beauv.” value ([2]; dose 600 g a.i./hm^2) was 100% and the “Growth inhibition rate, Post-emergence treatment, Setaria glauca (L.) Beauv.” value ([3]; dose 7.5 g a.i./hm^2) was 70%. The “Growth inhibition rate, Post-emergence treatment, Setaria glauca (L.) Beauv.” value ([3]; dose 15 g a.i./hm^2) was 80%, the “Growth inhibition rate, Post-emergence treatment, Setaria glauca (L.) Beauv.” value ([3]; dose 37.5 g a.i./hm^2) was 25% and the “Growth inhibition rate, Post-emergence treatment, Setaria glauca (L.) Beauv.” value ([3]; dose 150 g a.i./hm^2) was 95%. For the same compound, the “Growth inhibition rate, Post-emergence treatment, Setaria glauca (L.) Beauv.” value ([3]; dose 600 g a.i./hm^2) was 100%, the “Growth inhibition rate, Pre-emergence treatment, Setaria glauca (L.) Beauv.” value ([3]; dose 7.5 g a.i./hm^2) was 20% and the “Growth inhibition rate, Pre-emergence treatment, Setaria glauca (L.) Beauv.” value ([3]; dose 15 g a.i./hm^2) was 35%. For the same compound, the “Growth inhibition rate, Pre-emergence treatment, Setaria glauca (L.) Beauv.” value ([3]; dose 37.5 g a.i./hm^2) was 90%, the “Growth inhibition rate, Pre-emergence treatment, Setaria glauca (L.) Beauv.” value ([3]; dose 150 g a.i./hm^2) was 98% and the “Growth inhibition rate, Pre-emergence treatment, Setaria glauca (L.) Beauv.” value ([3]; dose 600 g a.i./hm^2) was 100%. For the same compound, the “Growth inhibition rate, Post-emergence treatment, Zinnia elegans Jacq.” value ([4]; dose 7.5 g a.i./hm^2) was 98%, the “Growth inhibition rate, Post-emergence treatment, Zinnia elegans Jacq.” value ([4]; dose 15 g a.i./hm^2) was 100% and the “Growth inhibition rate, Post-emergence treatment, Zinnia elegans Jacq.” value ([4]; dose 37.5 g a.i./hm^2) was 100%. The “Growth inhibition rate, Post-emergence treatment, Zinnia elegans Jacq.” value ([4]; dose 150 g a.i./hm^2) was 100%, the “Growth inhibition rate, Post-emergence treatment, Zinnia elegans Jacq.” value ([4]; dose 600 g a.i./hm^2) was 100% and the “Growth inhibition rate, Pre-emergence treatment, Zinnia elegans Jacq.” value ([4]; dose 7.5 g a.i./hm^2) was 0%. The “Growth inhibition rate, Pre-emergence treatment, Zinnia elegans Jacq.” value ([4]; dose 15 g a.i./hm^2) was 25%, the “Growth inhibition rate, Pre-emergence treatment, Zinnia elegans Jacq.” value ([4]; dose 37.5 g a.i./hm^2) was 50% and the “Growth inhibition rate, Pre-emergence treatment, Zinnia elegans Jacq.” value ([4]; dose 150 g a.i./hm^2) was 100%. For the same compound, the “Growth inhibition rate, Pre-emergence treatment, Zinnia elegans Jacq.” value ([4]; dose 600 g a.i./hm^2) was 100%, the “pre-emergence and post-emergence herbicidal activity against broad-leaf weeds and grass weeds” value [5] was “good” and the “Crop safety, maize” value [6] was “good safety”. The “Crop safety, rice” value [7] was “good safety” and the “Crop safety, wheat” value [8] was “good safety”.
